Laboratory results: ChEMBL document CHEMBL1201862, “PubChem BioAssay data set” (2004)
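Exposure lasted 48 hours, with cells grown in 96-well plates and compounds tested at five concentrations. Here, GI50 denotes the concentration required for 50% inhibition of growth.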 Active and inactive are the calls of the source. Cut-off read from the data, not from the text of the source: active = GI50 up to about 1.1 µM and inactive = higher.

Legend:
Assay in all cases: NCI tumour cell line growth inhibition, 48 h
[1] = test system: CAKI-1
[2] = test system: COLO 205
[3] = test system: DU-145
[4] = test system: HCT-15
[5] = test system: HL-60
[6] = test system: K562
[7] = test system: LOX IMVI
[8] = test system: M14
[9] = test system: MCF7
[10] = test system: NCI-H460
[11] = test system: OVCAR-4
[12] = test system: OVCAR-8
[13] = test system: PC-3
[14] = test system: RPMI-8226
[15] = test system: SN12C
[16] = test system: SNB-19
[17] = test system: SW-620
[18] = test system: U-251
[19] = test system: HCC 2998
[20] = test system: ACHN

Row | Structure (SMILES) | GI50 [1] | GI50 [2] | GI50 [3] | GI50 [4] | GI50 [5] | GI50 [6] | GI50 [7] | GI50 [8] | GI50 [9] | GI50 [10] | GI50 [11] | GI50 [12] | GI50 [13] | GI50 [14] | GI50 [15] | GI50 [16] | GI50 [17] | GI50 [18] | GI50 [19] | GI50 [20]
1 | Cc1ccnc(NC(=S)Nc2ccccc2Cl)c1 | > 100 µM (inactive) | > 100 µM (inactive) | > 100 µM (inactive) | > 100 µM | > 100 µM (inactive) | > 100 µM (inactive) | > 100 µM (inactive) | > 100 µM (inactive) | > 100 µM (inactive) | > 100 µM (inactive) | > 100 µM (inactive) | 77.8 µM (inactive) | > 100 µM (inactive) | > 100 µM (inactive) | > 100 µM (inactive) | > 100 µM (inactive) | > 100 µM (inactive) | > 100 µM (inactive) | – | –
2 | CC[C@@]12CCC(=S)N(CCSc3ccccc3)[C@@H]1c1c(n(S(=O)(=O)c3ccc(OC)cc3)c3ccccc13)CC2 | > 100 µM (inactive) | > 100 µM (inactive) | > 100 µM (inactive) | > 100 µM | > 100 µM (inactive) | > 100 µM (inactive) | > 100 µM (inactive) | > 100 µM (inactive) | > 100 µM (inactive) | > 100 µM (inactive) | – | > 100 µM (inactive) | > 100 µM (inactive) | > 100 µM (inactive) | > 100 µM (inactive) | 32.9 µM (inactive) | > 100 µM (inactive) | > 100 µM (inactive) | – | –
3 | CCOC(=O)C1=C(C(C)=O)CSC(c2ccccc2)=N1 | > 100 µM (inactive) | > 100 µM (inactive) | – | > 100 µM | > 100 µM (inactive) | > 100 µM (inactive) | > 100 µM (inactive) | – | 40.7 µM (inactive) | > 100 µM (inactive) | > 100 µM (inactive) | > 100 µM (inactive) | – | > 100 µM (inactive) | > 100 µM (inactive) | > 100 µM (inactive) | > 100 µM (inactive) | > 100 µM (inactive) | > 100 µM (inactive) | –
4 | COC(=O)CNCC1OC2OC(C)(C)OC2C1N=[N+]=[N-] (stereo not given) | > 100 µM (inactive) | > 10 µM (inactive) | > 100 µM (inactive) | > 100 µM | > 100 µM (inactive) | > 100 µM (inactive) | > 100 µM (inactive) | – | > 100 µM (inactive) | > 100 µM (inactive) | > 100 µM (inactive) | > 100 µM (inactive) | > 100 µM (inactive) | > 100 µM (inactive) | > 100 µM (inactive) | > 100 µM (inactive) | > 100 µM (inactive) | > 100 µM (inactive) | – | > 100 µM (inactive)
5 | O=C1O[C@H](c2ccc3c(c2)OCO3)[C@H]2CO[C@@H](c3ccc4c(c3)OCO4)[C@@H]12 | 77.8 µM (inactive) | 85.5 µM (inactive) | – | > 100 µM | > 100 µM (inactive) | 60.1 µM (inactive) | > 100 µM (inactive) | > 100 µM (inactive) | > 100 µM (inactive) | > 100 µM (inactive) | 96.2 µM (inactive) | > 100 µM (inactive) | > 100 µM (inactive) | 33.9 µM (inactive) | > 100 µM (inactive) | > 100 µM (inactive) | > 100 µM (inactive) | > 100 µM (inactive) | > 100 µM (inactive) | > 100 µM (inactive)
6 | CCn1nc(C)c2c1C(=O)NCC(=O)N2 | > 100 µM (inactive) | > 100 µM (inactive) | > 100 µM (inactive) | > 100 µM | – | – | – | > 100 µM (inactive) | – | > 100 µM (inactive) | > 100 µM (inactive) | > 100 µM (inactive) | > 100 µM (inactive) | – | > 100 µM (inactive) | > 100 µM (inactive) | > 100 µM (inactive) | > 100 µM (inactive) | – | > 100 µM (inactive)
7 | CCCCCCCCC/C=C1\CC(CO)(COC(=O)c2ccccc2)OC1=O (stereo not given) | 19.4 µM (inactive) | 16.6 µM (inactive) | 29.1 µM (inactive) | 20.7 µM | – | 27.9 µM (inactive) | – | 17.8 µM (inactive) | 23.8 µM (inactive) | 16 µM (inactive) | 35.1 µM (inactive) | – | 17.2 µM (inactive) | – | 19.2 µM (inactive) | 20.9 µM (inactive) | 19.1 µM (inactive) | 21.1 µM (inactive) | 22.8 µM (inactive) | 29.8 µM (inactive)
8 | CSC1=N/C(=C\c2ccc(C)cc2)C(=O)N1CN1CCCCC1 | – | 73.1 µM (inactive) | > 100 µM (inactive) | 73.8 µM | – | 74 µM (inactive) | 34.3 µM (inactive) | > 100 µM (inactive) | 88.1 µM (inactive) | – | 22.4 µM (inactive) | > 100 µM (inactive) | 72.4 µM (inactive) | 32.3 µM (inactive) | > 100 µM (inactive) | > 100 µM (inactive) | 44.7 µM (inactive) | > 100 µM (inactive) | – | 59.6 µM (inactive)
9 | O=[N+]([O-])C(=C/c1cccc2ccccc12)/C(=C\c1cccc2ccccc12)[N+](=O)[O-] | 2.2 µM (inactive) | 3.44 µM (inactive) | 2.84 µM (inactive) | 1.9 µM | – | 3.08 µM (inactive) | 1.61 µM (inactive) | 2.19 µM (inactive) | 2.99 µM (inactive) | 2.34 µM (inactive) | 2.91 µM (inactive) | 2.42 µM (inactive) | 5.24 µM (inactive) | 2.56 µM (inactive) | 2.34 µM (inactive) | 4.51 µM (inactive) | 1.89 µM (inactive) | 1.95 µM (inactive) | 2.42 µM (inactive) | 2.13 µM (inactive)
10 | O=C(c1ccccc1O)c1cc(-c2ncc3c(=O)c4ccccc4oc3n2)c(-c2ccccc2O)[nH]c1=O | 8.02 µM (inactive) | 31.9 µM (inactive) | – | 24.9 µM | 24.9 µM (inactive) | 19.7 µM (inactive) | 18.6 µM (inactive) | – | 14.3 µM (inactive) | 23.3 µM (inactive) | 22.5 µM (inactive) | 30.7 µM (inactive) | – | 20.1 µM (inactive) | 23.8 µM (inactive) | 8.73 µM (inactive) | 19.2 µM (inactive) | – | 17 µM (inactive) | –
11 | COC1OC(C(C)O)C2OC(C)(C)OC12 (stereo not given) | > 100 µM (inactive) | > 100 µM (inactive) | > 100 µM (inactive) | > 100 µM | > 100 µM (inactive) | > 100 µM (inactive) | > 100 µM (inactive) | > 100 µM (inactive) | > 100 µM (inactive) | > 100 µM (inactive) | > 100 µM (inactive) | > 100 µM (inactive) | > 100 µM (inactive) | > 100 µM (inactive) | > 100 µM (inactive) | > 100 µM (inactive) | > 100 µM (inactive) | > 100 µM (inactive) | – | > 100 µM (inactive)
12 | COc1ccc(-c2c(C(C)=O)c(C)n(C3OC(CO)C(O)C(O)C3O)c(=S)c2C#N)cc1 (stereo not given) | > 100 µM (inactive) | > 100 µM (inactive) | > 100 µM (inactive) | > 100 µM | 41 µM (inactive) | 37.8 µM (inactive) | 45.5 µM (inactive) | 60.1 µM (inactive) | > 100 µM (inactive) | > 100 µM (inactive) | 95.5 µM (inactive) | 58.2 µM (inactive) | 47 µM (inactive) | 83.6 µM (inactive) | 50.6 µM (inactive) | 19.5 µM (inactive) | 78.5 µM (inactive) | 47 µM (inactive) | – | 80.2 µM (inactive)
13 | COC(=O)[C@]1(c2ccc(N(C)C)cc2OC)C[C@@H]2CCCN(CCc3c1[nH]c1ccccc31)C2 | 54.1 µM (inactive) | 13.8 µM (inactive) | – | 20.8 µM | 11.7 µM (inactive) | 17.3 µM (inactive) | > 43.7 µM (inactive) | – | 15.9 µM (inactive) | 16.7 µM (inactive) | 13.3 µM (inactive) | 24.9 µM (inactive) | – | 28.1 µM (inactive) | 19.3 µM (inactive) | 74 µM (inactive) | 40.3 µM (inactive) | 19.1 µM (inactive) | 15.3 µM (inactive) | –
14 | O=C(O)CNCCc1ccccc1 | > 100 µM (inactive) | > 100 µM (inactive) | > 100 µM (inactive) | > 100 µM | > 100 µM (inactive) | > 100 µM (inactive) | > 100 µM (inactive) | > 100 µM (inactive) | > 100 µM (inactive) | > 100 µM (inactive) | > 100 µM (inactive) | > 100 µM (inactive) | > 100 µM (inactive) | > 100 µM (inactive) | > 100 µM (inactive) | > 100 µM (inactive) | > 100 µM (inactive) | > 100 µM (inactive) | – | > 100 µM (inactive)
15 | COc1cccc(-c2nc3c(C(=O)NCCN(C)C)cccc3[nH]2)c1 | 16 µM (inactive) | 10 µM (inactive) | – | 18.9 µM | 15.7 µM (inactive) | 15.1 µM (inactive) | 13.3 µM (inactive) | – | 21.8 µM (inactive) | 11.1 µM (inactive) | 26.3 µM (inactive) | 15.7 µM (inactive) | – | 13.2 µM (inactive) | 17.4 µM (inactive) | 31.3 µM (inactive) | 12.7 µM (inactive) | 23.8 µM (inactive) | 15.6 µM (inactive) | –
16 | CN1CCCOC(c2ccc([N+](=O)[O-])cc2)O1 (stereo not given) | > 100 µM (inactive) | > 100 µM (inactive) | > 100 µM (inactive) | > 100 µM | – | > 100 µM (inactive) | > 100 µM (inactive) | > 100 µM (inactive) | > 100 µM (inactive) | > 100 µM (inactive) | > 100 µM (inactive) | > 100 µM (inactive) | > 100 µM (inactive) | – | > 100 µM (inactive) | > 100 µM (inactive) | > 100 µM (inactive) | > 100 µM (inactive) | > 100 µM (inactive) | > 100 µM (inactive)
